{"source": "patent US20060089375A1", "about": "“Pyrazolo[3,4-b] pyridine compounds, and their use as phosphodiesterase inhibitors” (priority 2002, published 2006)", "data": [{"tested_on": "pica feeding response", "assay": "In Vivo Assay 2: Rat Pica Model of Emesis", "conditions": "oral, rats, dosed orally, upper end given as greater than or equal to about 40 mg/kg", "from_the_text": "However, a side effect of some PDE4 inhibitors in many species is emesis. Because many rat models of inflammation are well characterized, they have been used in procedures (see e.g. In Vivo Assay 1 above) to show beneficial anti-inflammatory effects of PDE 4 inhibitors. However rats have no emetic response (they have no vomit reflex), so that the relationship between beneficial anti-inflammatory effects of PDE 4 inhibitors and emesis is difficult to study directly in rats.\nPica feeding is a behavioural response to illness in rats wherein rats eat non-nutritive substances such as earth or in particular clay (e.g. kaolin) which may help to absorb toxins. Pica feeding can be induced by motion and chemicals (especially chemicals which are emetic in humans), and can be inhibited pharmacologically with drugs that inhibit emesis in humans. The Rat Pica Model, In Vivo Assay 2, can determine the level of pica response of rats to PDE 4 inhibition at pharmacologically relevant doses in parallel to in vivo anti-inflammatory Assays in (a separate set of) rats (e.g. In Vivo Assay 1 above). […] The Rat TI can for example be calculated as the ratio of a) the potentially-emetic Pica Response ED50 dose from Assay 2 to b) the rat anti-inflammatory ED50 dose (e.g. measured by rat neutrophilia-inhibition in eg In Vivo Assay 1), with larger TI ratios possibly indicating lower emesis at many anti-inflammatory doses. […]\nAt the end of 72 hours the rats are placed in clean cages and the food cups weighed. […] The food and clay cups and cage debris are weighed the following day and the total clay and food consumed that night by each individual animal is calculated.\nA dose response is calculated by first converting the data into quantal response, where animals are either positive or negative for the pica response. A rat is “pica positive” if it consumes greater than or equal to 0.3 grams of clay […] using logistic regression performed by the Statistica software statistical package. A Pica Response ED50 value in mg per kg of body weight can then be calculated.", "units": {"ED50": "mg/kg"}, "values": [{"smiles": "CCNC(=O)c1cnc2c(cnn2CC)c1NC1CCOCC1", "note": "[Example 83, 1-Ethyl-N-ethyl-4-(tetrahydro-2H-pyran-4-ylamino)-1H-pyrazolo[3,4-b]pyridine-5-carboxamide]", "ED50": "4.8 to 40"}, {"smiles": "CCn1ncc2c(NC3CCOCC3)c(C(=O)NCc3ccc(C(F)(F)F)cc3)cnc21", "note": "[Example 155, 1-Ethyl-4-(tetrahydro-2H-pyran-4-ylamino)-N-[4-(trifluoromethyl)benzyl]-1H-pyrazolo[3,4-b]pyridine-5-carboxamide]", "ED50": "4.8 to 40"}, {"smiles": "CCn1ncc2c(NC3CCOCC3)c(C(=O)Nc3ccc(F)cc3)cnc21", "note": "[Example 22, 1-Ethyl-N-(4-fluorophenyl)-4-(tetrahydro-2H-pyran-4-ylamino)-1H-pryazolo[3,4-b]pyridine-5-carboxamide]", "ED50": "4.8 to 40"}]}]}
